Test results reported in US20220402925A1, “COMPOUNDS AND METHODS FOR THE TREATMENT OF CYSTIC FIBROSIS” (Flatley Discovery Lab, LLC, priority 2019, published 2022).

molecular target: T1, F508del CFTR (Homo sapiens, UniProt P13569, DEL508-508); experiment: Equivalent current assay in primary CF airway epithelial cells (Corrector Activity, NAUC normalized to 3 μM VX809); format: cell-based; details: NAUC as % of positive control (VX-809)
T1 construct: Primary CF airway epithelial cells were obtained from the UNC Cystic Fibrosis Tissue Procurement and Cell Culture Core; host or cells: primary CF airway epithelial cells
T1 sequence (P13569 with tags, fused parts or gaps DEL508-508): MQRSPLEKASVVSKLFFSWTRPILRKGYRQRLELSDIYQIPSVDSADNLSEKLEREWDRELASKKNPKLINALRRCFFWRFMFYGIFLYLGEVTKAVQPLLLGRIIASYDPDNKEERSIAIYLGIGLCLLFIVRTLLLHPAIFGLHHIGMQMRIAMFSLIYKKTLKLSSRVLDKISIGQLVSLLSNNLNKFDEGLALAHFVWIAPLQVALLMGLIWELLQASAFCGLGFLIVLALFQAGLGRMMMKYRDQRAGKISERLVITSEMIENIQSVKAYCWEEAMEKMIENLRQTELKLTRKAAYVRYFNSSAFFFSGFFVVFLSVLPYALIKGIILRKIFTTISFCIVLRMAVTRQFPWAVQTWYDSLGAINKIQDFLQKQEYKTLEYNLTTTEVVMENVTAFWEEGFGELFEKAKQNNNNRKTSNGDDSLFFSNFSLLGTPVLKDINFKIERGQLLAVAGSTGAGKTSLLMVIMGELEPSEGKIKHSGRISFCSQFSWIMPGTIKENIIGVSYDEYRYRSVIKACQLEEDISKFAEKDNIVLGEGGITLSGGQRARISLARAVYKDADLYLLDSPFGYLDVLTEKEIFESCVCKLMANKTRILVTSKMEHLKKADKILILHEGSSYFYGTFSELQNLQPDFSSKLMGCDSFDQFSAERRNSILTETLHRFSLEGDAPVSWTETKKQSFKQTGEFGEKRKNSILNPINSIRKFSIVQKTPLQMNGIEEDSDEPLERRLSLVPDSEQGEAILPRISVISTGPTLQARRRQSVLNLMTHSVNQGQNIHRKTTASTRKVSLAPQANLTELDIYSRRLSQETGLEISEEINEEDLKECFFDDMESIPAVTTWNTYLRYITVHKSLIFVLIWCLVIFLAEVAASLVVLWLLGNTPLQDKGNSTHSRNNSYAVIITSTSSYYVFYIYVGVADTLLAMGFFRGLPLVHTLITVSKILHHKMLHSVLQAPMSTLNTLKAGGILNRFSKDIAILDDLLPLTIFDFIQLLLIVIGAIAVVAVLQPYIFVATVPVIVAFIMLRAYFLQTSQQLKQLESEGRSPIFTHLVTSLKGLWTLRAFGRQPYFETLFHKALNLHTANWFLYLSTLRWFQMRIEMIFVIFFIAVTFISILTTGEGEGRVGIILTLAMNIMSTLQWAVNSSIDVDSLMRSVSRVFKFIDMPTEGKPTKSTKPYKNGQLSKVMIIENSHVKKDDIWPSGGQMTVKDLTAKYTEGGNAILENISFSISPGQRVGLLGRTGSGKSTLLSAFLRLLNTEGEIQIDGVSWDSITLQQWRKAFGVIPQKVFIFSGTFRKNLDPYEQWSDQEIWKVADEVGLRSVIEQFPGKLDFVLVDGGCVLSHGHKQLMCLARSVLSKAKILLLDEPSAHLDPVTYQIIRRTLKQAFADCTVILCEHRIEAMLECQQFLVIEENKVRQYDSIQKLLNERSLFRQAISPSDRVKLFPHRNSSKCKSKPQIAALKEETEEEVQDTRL
Method: Primary CF airway epithelial cells were obtained from the UNC Cystic Fibrosis Tissue Procurement and Cell Culture Core. The cells are grown at 37° C. in a Heracell 150i incubator using growth media (BEGM, Fischer). Cells were then transferred to differentiation media (airway liquid interface media (ALI) media; Lechner J F and LaVeck M A, J. Tissue Culture Methods 1985, 9: 43-48) for a minimum of 4 weeks on coated Costar transwells. Two days before the assay the mucus on the apical surface of the cells was aspirated after incubating with 200 μL of differentiation media for at least thirty (30) minutes. One day before the assay test compounds were added to the basolateral surface of the cells at various test concentrations dissolved in DMSO. Duplicate wells were prepared giving a n=4 or n=6 protocol.
Cells were treated for 24 hours with various combinations and concentrations of the test articles, reference standard (3 μM VX809, positive control). Compounds stock solutions were prepared in DMSO and diluted 1/1000 into ALI media to their final assay concentration. Cells were treated with combination solutions (2 mL of each dilution) and incubated at 37° C. for 24 h.
For the equivalent current assay, cells on six Transwell (24-well) plates were treated. Each Transwell plate was filled with 200 μl of HBS on the apical surface and 2 ml on the basolateral surface. Plates were placed horizontally in a heated mount at 37° C. and equilibrated for 30 minutes. Resting current was measured for 15 min and then blocked by the apical addition of 5 μM benzamil. After 20 min, CFTR activator (10 μM forskolin) and potentiator (either 1 μM VX-770 or 3 μM FDL176) were added to both the apical and basolateral side to stimulate CFTR. An increase in chloride current is seen as an upward deflection of the trace. After another 60 min, CFTR-172 (a CFTR inhibitor, 20 μM) and/or bumetanide (20 uM) was added to block CFTR mediated chloride current.
The raw data, voltage vs. time and resistance vs. time for the equivalent current assay (sampling interval: 6 minutes) were transferred to Excel (Microsoft Office Professional, version 14.0.7106.5003) for analysis. CFTR specific current was computed from I=V/R (Ohms Law), the average amplitude of the increase in current elicited upon addition forskolin and ending upon addition of the CFTR channel specific blocker CFTR-172. This average is equivalent to the sum of the average forskolin activated and the average VX770-potentiated currents. The average current measured in vehicle (0.1% DMSO) treated cells, IV, was subtracted from the current for the test article, ITA, or from the corrector reference standard VX809 (3 uM, ISTD). For replicate measurements, the averaged vehicle subtracted response for the test article, was normalized to the averaged vehicle subtracted response of the reference corrector VX809 (3 μM).
INSC=(ITA−IV)(ave)/(ISTD−IV)(ave) (Equation 1)
A second endpoint, for the equivalent current assay, evaluated was NAUC, the normalized area under the curve (AUC) measuring the response after addition of forskolin and potentiator to the time point right before the addition of the CFTR inhibitor. The AUC is effectively the average response multiplied by the duration of the response. The AUC of the test article, AUCTA was then corrected by subtracting the average vehicle response, AUCV,ave over the same time range, and normalized as for the inhibitor-sensitive current to the difference of the corrector reference standard VX809 (3 μM VX809r,ave and the vehicle response:
NAUCTA=[AUCTA−AUCV,ave]/[AUCVx809r,ave−AUCV,ave] (Equation 2).
The normalized value for DMSO is 0.0 and for VX-809 alone is 1.0 for both of these equations.
Experiments were run with a minimum of n=4 replicates per concentration. Since the distribution for the ratio of two normal distributions is a Cauchy distribution, the median value must be used for the average and the average deviation must be used for the error of all normalized data. […]

| Corr Activity (NAUC) | Structure (SMILES) |
| --- | --- |
| +++ (NAUC>70% of positive control) | CCN(C(=O)Cn1nc(-c2cc(F)cc(F)c2)c2oc(C)cc2c1=O)c1ccc2c(c1)OC(F)(F)O2 [Example 74] |
| +++ (NAUC>70% of positive control) | CCN(C(=O)Cn1nc(-c2cc(F)cc(Cl)c2)c2oc(C)cc2c1=O)c1ccc2c(c1)OC(F)(F)O2 [Example 75] |
| +++ (NAUC>70% of positive control) | CCN(C(=O)Cn1nc(-c2cc(F)cc(C#N)c2)c2oc(C)cc2c1=O)c1ccc2c(c1)OC(F)(F)O2 [Example 76] |
| +++ (NAUC>70% of positive control) | Cc1cc2c(=O)n(CC(=O)N(c3ccc4c(c3)OC(F)(F)O4)C3CC3)nc(-c3cc(Cl)cc(Cl)c3)c2o1 [Example 77] |
| +++ (NAUC>70% of positive control) | Cc1cc2c(=O)n(CC(=O)N(c3ccc4c(c3)OC(F)(F)O4)C3CC3)nc(-c3cc(F)cc(F)c3)c2o1 [Example 78] |
| +++ (NAUC>70% of positive control) | CCN(C(=O)Cn1nc(-c2cc(C)cc(Cl)c2)c2occc2c1=O)c1ccc2c(c1)OC(F)(F)O2 [Example 79] |
| +++ (NAUC>70% of positive control) | CCN(C(=O)Cn1nc(-c2cc(C)cc(F)c2)c2occc2c1=O)c1ccc2c(c1)OC(F)(F)O2 [Example 83] |
| +++ (NAUC>70% of positive control) | CCN(C(=O)Cn1nc(-c2cc(C)cc(C#N)c2)c2occc2c1=O)c1ccc2c(c1)OC(F)(F)O2 [Example 84] |
| +++ (NAUC>70% of positive control) | Cc1cc(Cl)cc(-c2nn(CC(=O)N(C)c3ccc4c(c3)OC(F)(F)O4)c(=O)c3ccoc23)c1 [Example 85] |
| +++ (NAUC>70% of positive control) | Cc1cc(C#N)cc(-c2nn(CC(=O)N(C)c3ccc4c(c3)OC(F)(F)O4)c(=O)c3ccoc23)c1 [Example 86] |
| + (NAUC<40% of positive control) | CN(C(=O)Cn1nc(-c2cccc(C(C)(C)C)c2)c2occc2c1=O)c1ccc2c(c1)OC(F)(F)O2 [Example 87] |
| ++ (NAUC 70-40% of positive control) | CCN(C(=O)Cn1nc(-c2cccc(C(C)(C)C)c2)c2occc2c1=O)c1ccc2c(c1)OC(F)(F)O2 [Example 88] |
| ++ (NAUC 70-40% of positive control) | CCN(C(=O)Cn1nc(-c2cccc(OC(C)(C)C)c2)c2occc2c1=O)c1ccc2c(c1)OC(F)(F)O2 [Example 89] |
| ++ (NAUC 70-40% of positive control) | CN(C(=O)Cn1nc(-c2cccc(OC(F)(F)F)c2)c2occc2c1=O)c1ccc2c(c1)OC(F)(F)O2 [Example 90] |
| +++ (NAUC>70% of positive control) | CCN(C(=O)Cn1nc(-c2cccc(OC(F)(F)F)c2)c2occc2c1=O)c1ccc2c(c1)OC(F)(F)O2 [Example 91] |
| + (NAUC<40% of positive control) | Cc1nc2ccc(N(C)C(=O)Cn3nc(-c4cccc(C(C)(C)C)c4)c4occc4c3=O)cc2o1 [Example 92] |
| + (NAUC<40% of positive control) | Cc1nc2ccc(N(C)C(=O)Cn3nc(-c4cccc(OC(F)(F)F)c4)c4occc4c3=O)cc2o1 [Example 93] |
| ++ (NAUC 70-40% of positive control) | CCN(C(=O)Cn1nc(-c2cccc(OC(F)(F)F)c2)c2occc2c1=O)c1ccc2nc(C)oc2c1 [Example 94] |
| ++ (NAUC 70-40% of positive control) | COC(=O)c1ccc(-c2nn(CC(=O)N(C)c3ccc4c(c3)OC(F)(F)O4)c(=O)c3ccoc23)cc1C#N [Example 95] |
| +++ (NAUC>70% of positive control) | CCOC(=O)c1ccc(-c2nn(CC(=O)N(CC)c3ccc4c(c3)OC(F)(F)O4)c(=O)c3ccoc23)cc1C#N [Example 96] |
| + (NAUC<40% of positive control) | CCN(C(=O)Cn1nc(-c2cc(C#N)cc(C(F)(F)F)c2)c2occc2c1=O)c1ccc2c(c1)OC(F)(F)O2 [Example 97] |

| Corr Activity (NAUC) | Structure (SMILES) |
| --- | --- |
| ++ (NAUC 70-40% of positive control) | CN(C(=O)Cn1nc(-c2cc(C#N)cc(C(F)(F)F)c2)c2occc2c1=O)c1ccc2c(c1)OC(F)(F)O2 [Example 98] |
| +++ (NAUC>70% of positive control) | CCN(C(=O)Cn1nc(-c2cc(C#N)cc(C(F)F)c2)c2occc2c1=O)c1ccc2c(c1)OC(F)(F)O2 [Example 99] |
| +++ (NAUC>70% of positive control) | CN(C(=O)Cn1nc(-c2cc(C#N)cc(C(F)F)c2)c2occc2c1=O)c1ccc2c(c1F)OC(F)(F)O2 [Example 101] |
| ++ (NAUC 70-40% of positive control) | O=C(Cn1nc(-c2cccc(F)c2)c2occc2c1=O)N1CCCc2c1ccc1c2OC(F)(F)O1 [Example 102] |
| ++ (NAUC 70-40% of positive control) | N#Cc1cc(Cl)cc(-c2nn(CC(=O)N3CCCc4c3ccc3c4OC(F)(F)O3)c(=O)c3ccoc23)c1 [Example 103] |
| +++ (NAUC>70% of positive control) | N#Cc1cc(F)cc(-c2nn(CC(=O)N3CCCc4c3ccc3c4OC(F)(F)O3)c(=O)c3ccoc23)c1 [Example 104] |
| +++ (NAUC>70% of positive control) | COc1cc(C#N)cc(-c2nn(CC(=O)N3CCCc4c3ccc3c4OC(F)(F)O3)c(=O)c3ccoc23)c1 [Example 105] |
| +++ (NAUC>70% of positive control) | CN(C(=O)Cn1nc(-c2cccc(F)c2)c2occc2c1=O)c1ccc2c(c1F)OC(F)(F)O2 [Example 108] |
| +++ (NAUC>70% of positive control) | CCN(C(=O)Cn1nc(-c2cccc(F)c2)c2occc2c1=O)c1ccc2c(c1F)OC(F)(F)O2 [Example 109] |
| +++ (NAUC>70% of positive control) | CCN(C(=O)Cn1nc(-c2cc(C#N)cc(OC)c2)c2occc2c1=O)c1ccc2c(c1)OC(F)(F)O2 [Example 110] |
| +++ (NAUC>70% of positive control) | CCN(C(=O)Cn1nc(-c2cc(C#N)cc(C(C)(C)C)c2)c2occc2c1=O)c1ccc2c(c1)OC(F)(F)O2 [Example 111] |
| +++ (NAUC>70% of positive control) | CCN(C(=O)Cn1nc(-c2cc(Cl)cc(OC)c2)c2occc2c1=O)c1ccc2c(c1)OC(F)(F)O2 [Example 112] |
| +++ (NAUC>70% of positive control) | CCN(C(=O)Cn1nc(-c2cccc(F)c2)c2oc(C(=O)NC(C)(C)C)cc2c1=O)c1ccc2c(c1)OC(F)(F)O2 [Example 119] |
| +++ (NAUC>70% of positive control) | CCN(C(=O)Cn1nc(-c2cccc(Cl)c2)c2oc(C(=O)NC(C)(C)C)cc2c1=O)c1ccc2c(c1)OC(F)(F)O2 [Example 120] |
| +++ (NAUC>70% of positive control) | CCN(C(=O)Cn1nc(-c2cccc(C#N)c2)c2oc(C(=O)NC(C)(C)C)cc2c1=O)c1ccc2c(c1)OC(F)(F)O2 [Example 121] |
| ++ (NAUC 70-40% of positive control) | CCN(C(=O)Cn1nc(-c2cccc(OC(C)(C)C)c2)c2oc(C(=O)NC(C)(C)C)cc2c1=O)c1ccc2c(c1)OC(F)(F)O2 [Example 122] |
| + (NAUC<40% of positive control) | CN(C(=O)Cn1nc(-c2cccc(OC(C)(C)C)c2)c2oc(C(=O)NC(C)(C)C)cc2c1=O)c1ccc2c(c1)OC(F)(F)O2 [Example 123] |
| ++ (NAUC 70-40% of positive control) | CCN(C(=O)Cn1nc(-c2cccc(OC(F)(F)F)c2)c2oc(C(=O)NC(C)(C)C)cc2c1=O)c1ccc2c(c1)OC(F)(F)O2 [Example 124] |
| ++ (NAUC 70-40% of positive control) | CN(C(=O)Cn1nc(-c2cccc(OC(F)(F)F)c2)c2oc(C(=O)NC(C)(C)C)cc2c1=O)c1ccc2c(c1)OC(F)(F)O2 [Example 125] |
| +++ (NAUC>70% of positive control) | CN(C(=O)Cn1nc(-c2cccc(C(C)(C)C)c2)c2oc(C(=O)NC(C)(C)C)cc2c1=O)c1ccc2c(c1)OC(F)(F)O2 [Example 126] |
